Measurements reported in ChEMBL document CHEMBL6177980 (J Med Chem, 2025).
In brackets after ≈: the same amount, converted by molar mass.

What was measured:
[1] = Cmax in fasted Sprague-Dawley rat at 17.5 mg/kg, po by LC-MS/MS analysis; assay type: ADME, organism-based; details: in vivo
[2] = AUC (0 to t) in fasted Sprague-Dawley rat at 17.5 mg/kg, po by LC-MS/MS analysis; assay type: ADME, organism-based; details: in vivo
[3] = Stability of compound at pH 1.5 assessed as change in purity at 1 mg/ml incubated for 4 hrs by HPLC analysis; assay type: physicochemical; details: buffer, pH 1.5, 4 h
[4] = Stability of compound at pH 1.5 assessed as change in purity at 1 mg/ml incubated for 12 hrs by HPLC analysis; assay type: physicochemical; details: buffer, pH 1.5, 12 h
[5] = Stability of compound at pH 1.5 assessed as change in purity at 1 mg/ml incubated for 24 hrs by HPLC analysis; assay type: physicochemical; details: buffer, pH 1.5, 24 h
[6] = Stability of compound at pH 4.0 assessed as change in purity at 1 mg/ml incubated for 4 hrs by HPLC analysis; assay type: physicochemical; details: buffer, pH 4, 4 h
[7] = Stability of compound at pH 4.0 assessed as change in purity at 1 mg/ml incubated for 12 hrs by HPLC analysis; assay type: physicochemical; details: buffer, pH 4, 12 h
[8] = Stability of compound at pH 4.0 assessed as change in purity at 1 mg/ml incubated for 24 hrs by HPLC analysis; assay type: physicochemical; details: buffer, pH 4, 24 h
[9] = Stability of compound at pH 6.8 assessed as change in purity at 1 mg/ml incubated for 4 hrs by HPLC analysis; assay type: physicochemical; details: buffer, pH 6.8, 4 h
[10] = Stability of compound at pH 6.8 assessed as change in purity at 1 mg/ml incubated for 12 hrs by HPLC analysis; assay type: physicochemical; details: buffer, pH 6.8, 12 h
[11] = Stability of compound at pH 6.8 assessed as change in purity at 1 mg/ml incubated for 24 hrs by HPLC analysis; assay type: physicochemical; details: buffer, pH 6.8, 24 h
[12] = Oral bioavailability in fasted Cynomolgus monkey administered orally by LC-MS/MS analysis; assay type: ADME, organism-based, Macaca fascicularis; details: in vivo
[13] = Cmax in fasted Sprague-Dawley rat at 25 mg/kg, po by LC-MS/MS analysis; assay type: ADME, organism-based; details: in vivo
[14] = AUC (0 to t) in fasted Sprague-Dawley rat at 25 mg/kg, po by LC-MS/MS analysis; assay type: ADME, organism-based; details: in vivo
[15] = Cmax in fasted Sprague-Dawley rat at 24 mg/kg, po by LC-MS/MS analysis; assay type: ADME, organism-based; details: in vivo
[16] = AUC (0 to t) in fasted Sprague-Dawley rat at 24 mg/kg, po by LC-MS/MS analysis; assay type: ADME, organism-based; details: in vivo
[17] = Cmax in fasted Sprague-Dawley rat at 15.5 mg/kg, po by LC-MS/MS analysis; assay type: ADME, organism-based; details: in vivo
[18] = AUC (0 to t) in fasted Sprague-Dawley rat at 15.5 mg/kg, po by LC-MS/MS analysis; assay type: ADME, organism-based; details: in vivo
[19] = Cmax in fasted Sprague-Dawley rat at 21 mg/kg, po by LC-MS/MS analysis; assay type: ADME, organism-based; details: in vivo
[20] = AUC (0 to t) in fasted Sprague-Dawley rat at 21 mg/kg, po by LC-MS/MS analysis; assay type: ADME, organism-based; details: in vivo
[21] = Aqueous solubility of compound; assay type: physicochemical; details: aqueous medium

Row | Structure (SMILES) | Activity [3] [%] | Activity [4] [%] | Activity [5] [%] | Activity [6] [%] | Activity [7] [%] | Activity [8] [%] | Activity [9] [%] | Activity [10] [%] | Activity [11] [%] | bioavailability [12] [%] | further results
1 | CC(=O)OCCOC(=O)n1c(=O)ccn([C@@H]2O[C@](F)(COC(=O)C(C)C)[C@@H](O)[C@H]2O)c1=O |  |  |  |  |  |  |  |  |  |  | Cmax [1]: 915 ng/mL; AUC(0-t) [2]: 4300 ng·h/mL
2 | CC(C)C(=O)O[C@H]1[C@H](n2ccc(=O)n(COC(=O)c3cccnc3)c2=O)O[C@](F)(COC(=O)c2cccnc2)[C@H]1OC(=O)C(C)C | -2.8 | -4.8 | -7.8 | -0.6 | -0.8 | -0.8 | -3.4 | -8.1 | -15.9 | 102 | 
3 | CC(C)C(=O)OC[C@@]1(F)O[C@@H](n2ccc(=O)n(COC(=O)[C@@H]3CCCN3C)c2=O)[C@H](OC(=O)C(C)C)[C@@H]1OC(=O)C(C)C.Cl | -1.5 | -3.6 | -7.6 | -10.9 | -29.8 | -52.7 | -62.9 | -95 | -95 | 91 | Cmax [13]: 2150 ng/mL; AUC(0-t) [14]: 14200 ng·h/mL
4 | CC(C)C(=O)OC[C@@]1(F)O[C@@H](n2ccc(=O)n(COC(=O)[C@@H]3CCCN3)c2=O)[C@H](OC(=O)C(C)C)[C@@H]1OC(=O)C(C)C.Cl | -1.3 | -4.1 | -7.9 | -35.2 | -62.4 | -84.8 | -27.6 | -30.5 | -30.6 |  | Cmax [15]: 1370 ng/mL; AUC(0-t) [16]: 7590 ng·h/mL
5 | CCOC(=O)n1c(=O)ccn([C@@H]2O[C@](F)(COC(=O)C(C)C)[C@@H](O)[C@H]2O)c1=O |  |  |  |  |  |  |  |  |  |  | Cmax [17]: 569 ng/mL; AUC(0-t) [18]: 4650 ng·h/mL
6 | CC(C)C(=O)OC[C@@]1(F)O[C@@H](n2ccc(=O)n(COC(=O)[C@@H](N)C(C)C)c2=O)[C@H](OC(=O)C(C)C)[C@@H]1OC(=O)C(C)C.Cl | -0.9 | -2.7 | -5.2 | -0.6 | -1.2 | -2.1 | -90.7 | -98.1 | -98.1 |  | Cmax [15]: 1640 ng/mL; AUC(0-t) [16]: 11700 ng·h/mL
7 | CC(C)C(=O)OCn1c(=O)ccn([C@@H]2O[C@](F)(COC(=O)C(C)C)[C@@H](OC(=O)C(C)C)[C@H]2OC(=O)C(C)C)c1=O | -1.5 | -3.7 | -10.8 | 0 | 0 | 0 | 0 | -0.4 | -1.8 |  | 
8 | CC(=O)O[C@H]1[C@H](n2ccc(=O)n(COC(=O)c3cccnc3)c2=O)O[C@](F)(COC(=O)C(C)C)[C@H]1OC(C)=O | -2 | -5.6 | -10.4 | -0.1 | -0.1 | -0.2 | -6.7 | -16.4 | -31 | 86.4 | Cmax [19]: 2190 ng/mL; AUC(0-t) [20]: 13500 ng·h/mL; solubility [21]: 410 µg/mL (≈ 743 µM)
